Among the data in ChEMBL document CHEMBL5143601, “Rationalizing the binding and α subtype selectivity of synthesized imidazodiazepines and benzodiazepines at GABAA receptors by using molecular docking studies” (Bioorg Med Chem Lett, 2022) are Ki and Ratio Ki values, retold here.

For test [1], the target named is T1, GABA-A receptor; alpha-1/beta-2/gamma-2 (Homo sapiens, UniProt P14867+P18507+P47870).
T1 sequence (P14867 whole entry): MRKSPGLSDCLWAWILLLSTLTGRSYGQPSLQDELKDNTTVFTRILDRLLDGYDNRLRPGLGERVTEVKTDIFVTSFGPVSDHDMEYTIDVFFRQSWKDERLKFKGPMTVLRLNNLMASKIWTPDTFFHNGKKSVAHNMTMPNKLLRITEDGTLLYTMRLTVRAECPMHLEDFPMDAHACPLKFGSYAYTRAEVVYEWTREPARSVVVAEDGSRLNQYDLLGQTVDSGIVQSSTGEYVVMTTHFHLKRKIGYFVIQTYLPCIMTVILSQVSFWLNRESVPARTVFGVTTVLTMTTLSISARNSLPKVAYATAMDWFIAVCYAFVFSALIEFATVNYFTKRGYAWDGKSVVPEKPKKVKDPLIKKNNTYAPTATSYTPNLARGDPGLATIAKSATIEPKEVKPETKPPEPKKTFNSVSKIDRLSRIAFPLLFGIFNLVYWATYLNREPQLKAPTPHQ
T1 sequence (P47870 whole entry): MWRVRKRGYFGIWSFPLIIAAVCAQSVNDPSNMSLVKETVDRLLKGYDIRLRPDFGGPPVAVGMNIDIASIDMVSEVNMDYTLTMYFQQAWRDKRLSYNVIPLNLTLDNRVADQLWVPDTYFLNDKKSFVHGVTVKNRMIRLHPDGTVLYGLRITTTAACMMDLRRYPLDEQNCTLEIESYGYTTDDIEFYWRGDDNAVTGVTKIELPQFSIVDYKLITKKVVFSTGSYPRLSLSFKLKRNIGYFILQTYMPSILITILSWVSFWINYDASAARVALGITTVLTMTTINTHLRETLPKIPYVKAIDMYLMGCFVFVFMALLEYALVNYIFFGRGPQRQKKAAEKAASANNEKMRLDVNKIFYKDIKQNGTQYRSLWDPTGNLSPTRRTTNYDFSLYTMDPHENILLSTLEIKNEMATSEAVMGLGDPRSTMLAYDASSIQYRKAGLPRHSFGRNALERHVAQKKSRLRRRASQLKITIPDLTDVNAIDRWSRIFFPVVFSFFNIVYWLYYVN
T1 sequence (P18507 whole entry): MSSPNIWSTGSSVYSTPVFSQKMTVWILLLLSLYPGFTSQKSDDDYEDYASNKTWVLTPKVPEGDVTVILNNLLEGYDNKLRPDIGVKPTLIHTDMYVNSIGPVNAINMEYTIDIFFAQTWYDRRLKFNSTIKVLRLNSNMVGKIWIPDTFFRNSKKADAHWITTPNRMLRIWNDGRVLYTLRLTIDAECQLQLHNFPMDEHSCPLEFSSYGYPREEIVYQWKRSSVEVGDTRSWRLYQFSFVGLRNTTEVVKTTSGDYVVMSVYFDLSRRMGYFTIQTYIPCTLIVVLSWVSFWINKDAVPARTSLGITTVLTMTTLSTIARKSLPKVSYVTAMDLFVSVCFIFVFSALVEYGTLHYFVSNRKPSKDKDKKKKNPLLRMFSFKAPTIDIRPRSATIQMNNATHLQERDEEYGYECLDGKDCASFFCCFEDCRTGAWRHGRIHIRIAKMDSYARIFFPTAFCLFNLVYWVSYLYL
Description: Displacement of [3H]flunitrazepam from human recombinant alpha1beta2gamma2 GABAA receptor expressed in HEK cell membrane by competitive radioligand binding assay. The test is classed as cell membranes. In general terms: Loss of bound radioactivity is the signal in a displacement assay; it reports binding, not function.

Test [2] has as its target T2, GABA A receptor alpha-2/beta-2/gamma-2 (Homo sapiens, UniProt P18507+P47869+P47870).
T2 sequence (P47870 whole entry): T1 sequence (P47870 whole entry)
T2 sequence (P18507 whole entry): T1 sequence (P18507 whole entry)
T2 sequence (P47869 whole entry): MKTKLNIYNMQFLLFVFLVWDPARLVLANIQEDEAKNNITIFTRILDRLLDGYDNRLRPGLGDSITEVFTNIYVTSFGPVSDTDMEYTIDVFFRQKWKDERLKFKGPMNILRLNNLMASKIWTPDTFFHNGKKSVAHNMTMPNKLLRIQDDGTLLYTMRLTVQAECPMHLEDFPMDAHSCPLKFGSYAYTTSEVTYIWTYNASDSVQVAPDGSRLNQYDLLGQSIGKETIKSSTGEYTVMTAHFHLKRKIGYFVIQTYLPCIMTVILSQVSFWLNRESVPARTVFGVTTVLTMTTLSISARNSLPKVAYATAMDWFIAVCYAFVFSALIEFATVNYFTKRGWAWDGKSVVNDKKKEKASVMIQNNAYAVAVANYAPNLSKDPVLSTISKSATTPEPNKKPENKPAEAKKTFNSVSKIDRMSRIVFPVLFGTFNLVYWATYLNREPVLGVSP
The experiment in a line: Displacement of [3H]flunitrazepam from human recombinant alpha2beta2gamma2 GABAA receptor expressed in HEK cell membrane by competitive radioligand binding assay. The test is classed as cell membranes.

Test [3] has as its target T3, GABA A receptor alpha-3/beta-2/gamma-2 (Homo sapiens, UniProt P18507+P34903+P47870).
T3 sequence (P47870 whole entry): T1 sequence (P47870 whole entry)
T3 sequence (P18507 whole entry): T1 sequence (P18507 whole entry)
T3 sequence (P34903 whole entry): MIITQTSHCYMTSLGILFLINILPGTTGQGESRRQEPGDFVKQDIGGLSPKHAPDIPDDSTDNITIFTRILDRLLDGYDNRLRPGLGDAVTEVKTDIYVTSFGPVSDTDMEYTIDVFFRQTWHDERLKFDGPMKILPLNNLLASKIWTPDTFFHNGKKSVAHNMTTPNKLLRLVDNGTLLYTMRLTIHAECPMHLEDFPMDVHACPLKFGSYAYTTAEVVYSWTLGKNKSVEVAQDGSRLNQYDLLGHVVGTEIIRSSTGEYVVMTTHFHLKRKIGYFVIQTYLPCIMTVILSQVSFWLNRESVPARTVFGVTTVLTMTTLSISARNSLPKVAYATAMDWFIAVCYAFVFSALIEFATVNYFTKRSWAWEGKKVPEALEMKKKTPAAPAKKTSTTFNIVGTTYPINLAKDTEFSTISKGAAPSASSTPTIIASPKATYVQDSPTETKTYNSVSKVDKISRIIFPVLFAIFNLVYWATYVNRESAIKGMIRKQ
Description: Displacement of [3H]flunitrazepam from human recombinant alpha3beta2gamma2 GABAA receptor expressed in HEK cell membrane by competitive radioligand binding assay. The test is classed as cell membranes.

Test [4] addresses T4, Gamma-aminobutyric acid receptor subunit alpha-5/beta-2/gamma-2 (Homo sapiens, UniProt P18507+P31644+P47870).
T4 sequence (P47870 whole entry): T1 sequence (P47870 whole entry)
T4 sequence (P18507 whole entry): T1 sequence (P18507 whole entry)
T4 sequence (P31644 whole entry): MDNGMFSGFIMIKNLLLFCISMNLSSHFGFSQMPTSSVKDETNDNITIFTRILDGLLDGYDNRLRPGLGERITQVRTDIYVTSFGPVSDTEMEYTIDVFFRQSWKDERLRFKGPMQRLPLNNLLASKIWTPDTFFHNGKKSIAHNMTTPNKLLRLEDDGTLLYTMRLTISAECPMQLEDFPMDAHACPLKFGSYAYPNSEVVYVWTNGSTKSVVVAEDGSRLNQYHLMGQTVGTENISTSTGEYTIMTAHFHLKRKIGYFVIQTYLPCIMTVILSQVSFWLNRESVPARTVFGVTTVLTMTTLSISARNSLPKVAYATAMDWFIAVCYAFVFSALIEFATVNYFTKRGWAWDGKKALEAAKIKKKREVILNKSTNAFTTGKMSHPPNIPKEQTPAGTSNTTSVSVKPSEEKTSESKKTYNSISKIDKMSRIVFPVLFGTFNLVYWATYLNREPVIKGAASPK
The experiment in a line: Displacement of [3H]flunitrazepam from human recombinant alpha5beta2gamma2 GABAA receptor expressed in HEK cell membrane by competitive radioligand binding assay. The class given is cell membranes.

For another test, the species on record is Homo sapiens. Description: Selectivity ratio of Ki for human recombinant alpha1beta2gamma2 GABAA receptor expressed in HEK cell membrane to Ki for human recombinant alpha5beta2gamma2 GABAA receptor expressed in HEK cell membrane. The test is classed as cell-based.

In general, Ki refers to a measure of affinity in units of concentration, obtained from inhibition or displacement. As for `O=C1CN=C(c2ccccc2)c2ccccc2N1` [RO-052921], the inhibitory constant (Ki) in test [1] was 288 nM; in test [2], 233 nM; in test [3] it was 350 nM; in test [4], 140 nM. In the test listed under Homo sapiens, the Ratio Ki worked out at 2.

Consider `Cc1nnc2n1-c1ccc(Br)cc1C(c1ccccn1)=NC2`, for which the Ki in test [1] amounted to 7.3 nM; in test [2], 6.1 nM; in test [3], 5.1 nM; in test [4] it was 7.7 nM.

In the case of `C#Cc1ccc2c(c1)C(c1ccccc1Cl)=NCC(=O)N2C`, the Ki in test [1] worked out at 1.6 nM; in test [2] it was 0.99 nM; in test [4] it was 1.96 nM.

Regarding `C[C@H]1N=C(c2ccccc2)c2cc(Br)ccc2NC1=O`, the Ki in test [1], in test [2], in test [3] and in test [4] was more than 3000 nM each time.

As for `O=C1CN=C(c2ccccc2Cl)c2cc(Br)ccc2N1` [PHENAZEPAM], the Ki in test [1] is 0.05 nM; in test [2], 0.06 nM; in test [3], 0.12 nM; in test [4], 0.68 nM.

With `Cc1nnc2n1-c1ccc(Cl)cc1C(c1ccccc1)=NC2` [ALPRAZOLAM], the Ki in test [1] was found to be 0.8 nM; in test [2], 0.6 nM; in test [3], 1.4 nM; in test [4], 1.5 nM.

Take `C#Cc1ccc2c(c1)C(c1ccccc1)=NCc1nnc(C)n1-2`: the inhibition constant (Ki) in test [1] turned out to be 36.4 nM; in test [2], 25.8 nM; in test [4], 5.3 nM. For the same molecule, the Ratio Ki in the test listed under Homo sapiens was determined as 6.

For `Cc1nnc2n1-c1ccc(Br)cc1C(c1ccccc1)=NC2`, the inhibitory constant (Ki) in test [1] is 2.8 nM; in test [2] it was 0.7 nM; in test [4], 0.6 nM.

`C#Cc1ccc2c(c1)C(c1ccccn1)=NCc1nnc(C)n1-2`: the inhibitory constant (Ki) in test [1] stood at 144 nM; in test [2] it was 81.3 nM; in test [3], 104 nM; in test [4], 45.6 nM.

As to `C#Cc1ccc2c(c1)C(c1ccccc1Cl)=NCc1nnc(C)n1-2`, the Ki in test [1] was determined as 3.3 nM; in test [2] it was 0.6 nM; in test [3], 1.9 nM; in test [4] it was 4.4 nM.

For the molecule `CN1C(=O)CN=C(c2ccccc2)c2cc(Br)ccc21`, the Ki in test [1] came to 9.4 nM; in test [2], 9.3 nM; in test [3], 31 nM; in test [4], 7.7 nM.

Turning to `CN1C(=O)CN=C(c2ccccc2)c2ccccc21`, the Ki in test [1] turned out to be 81 nM; in test [2] it was 138 nM; in test [3] it was 318 nM; in test [4], 98 nM.

In the case of `C#Cc1ccc2c(c1)C(c1ccccc1F)=NCC(=O)N2C`, the Ki was 3.9 nM in test [1], 1.2 nM in test [2], 3.4 nM in test [3] and 0.8 nM in test [4].

With `C#Cc1ccc2c(c1)C(c1ccccc1)=N[C@@H](C)c1nnc(C)n1-2`, the inhibitory constant (Ki) was determined as 107 nM in test [1], 50.1 nM in test [2], 20.9 nM in test [3] and 8.1 nM in test [4]. The Ratio Ki in the test filed under Homo sapiens came out at 13.

As for `C#Cc1ccc2c(c1)C(c1ccccc1F)=NCc1nnc(C)n1-2`, the inhibition constant Ki in test [1] is 6.3 nM; in test [2], 2.1 nM; in test [4] it was 0.6 nM.

In the case of `C#Cc1ccc2c(c1)C(c1ccccc1)=NCC(=O)N2C`, the Ki was 76.3 nM in test [1], 42.1 nM in test [2], 47.4 nM in test [3] and 6.8 nM in test [4]. Also, the Ratio Ki in the test listed under Homo sapiens came out at 11.

As to `Cc1nnc2n1-c1ccc(Br)cc1C(c1ccccc1Cl)=NC2`, the Ki in test [1] was 0.5 nM; in test [2], 1 nM; in test [3], 0.6 nM; in test [4], 0.4 nM.

Consider `O=C1CN=C(c2ccccc2F)c2cc(Br)ccc2N1`, for which the inhibitory constant (Ki) in test [1] was 0.26 nM; in test [2], 0.15 nM; in test [3] it was 0.28 nM; in test [4], 0.26 nM.

`C[C@@H]1N=C(c2ccccc2)c2cc(Br)ccc2NC1=O`: the inhibition constant (Ki) in test [1] is 14.4 nM; in test [2], 11 nM; in test [3] it was 19.1 nM; in test [4], 1.89 nM. Further, the Ratio Ki in the test listed under Homo sapiens is 7.
